From ChEMBL document CHEMBL4196047, “Discovery and evolution of aloperine derivatives as novel anti-filovirus agents through targeting entry stage” (Eur J Med Chem, 2018)
Calls of active or inactive are those of the source. The calls are words filed in the database; no cut-off is given here.

How the values were obtained:
HEK-293T [1] = assay: Inhibition of endosomal acidification in HEK293T cells at […] after 1 hr by LysoTracker Red dye-based confocal fluorescence microscopic analysis; assay type: functional, cell-based; conditions: Homo sapiens
Marburgvirus [2] = assay: microbe, parasite or virus in culture; assay type: functional, organism-based; conditions: Orthomarburgvirus, HEK-293T
[3] = test system: Vesicular stomatitis virus; assay: microbe, parasite or virus in culture; assay type: functional, organism-based; conditions: HEK-293T
in vitro [4] = conditions: human, HEK293T cells
in vitro [5] = conditions: human, HEK293T cells; remark: listed apart in the source
in vitro [6] = conditions: human, HEK293T cells; remark: listed apart in the source
Ebolavirus [7] = assay: microbe, parasite or virus in culture; assay type: functional, cell-based; conditions: Orthoebolavirus, HEK-293T
[8] = MRT in BALB/c mouse at 25 mg/kg, po; assay type: ADME, organism-based; conditions: in vivo
[9] = Half life in BALB/c mouse at 25 mg/kg, po; assay type: ADME, organism-based; conditions: in vivo
Marburgvirus [10] = assay: Antiviral activity against HIV1 pseudotyped MARV infected in BALB/c mouse at 100 ug, iv and ip measured at day 4 by bioluminescence assay relative to control; assay type: functional
[11] = AUC (0 to t) in BALB/c mouse at 25 mg/kg, po; assay type: ADME, organism-based; conditions: in vivo
[12] = AUC (0 to infinity) in BALB/c mouse at 25 mg/kg, po; assay type: ADME, organism-based; design: dose 25 mg/kg, time infinity, route oral; conditions: in vivo
Ebolavirus [13] = assay: Antiviral activity against HIV1 pseudotyped EBOV infected in HEK293T cells assessed as inhibition of late stage viral entry at 25 uM treated during infection measured after 72 hrs by luciferase reporter gene assay relative to control; assay type: functional; conditions: Orthoebolavirus, HEK-293T
[14] = Toxicity in iv dosed Kunming mouse administered as single dose measured for 7 days; assay type: organism-based; conditions: in vivo
[15] = molecular target: Procathepsin L (Homo sapiens) (UniProt P07711); assay: Inhibition of cathepsin L in HEK293 cells using N-benzyloxycarbonyl-L-phenylalanyl-L-arginine-7-amido-4-methylcoumarin as substrate; assay type: cell-based
[16] = Toxicity in ip dosed Kunming mouse administered as single dose measured for 7 days; assay type: organism-based; conditions: in vivo
HEK-293T [17] = assay: Inhibition of endosomal acidification in HEK293T cells at 20 to 40 uM after 1 hr by LysoTracker Red dye-based confocal fluorescence microscopic analysis; assay type: functional, cell-based; conditions: Homo sapiens
[18] = Cmax in BALB/c mouse at 25 mg/kg, po; assay type: ADME, organism-based; design: dose 25 mg/kg, route oral; conditions: in vivo
[19] = Tmax in BALB/c mouse at 25 mg/kg, po; assay type: ADME, organism-based; conditions: in vivo
[20] = Toxicity in ig dosed Kunming mouse administered as single dose measured for 7 days; assay type: organism-based; conditions: in vivo, po
Ebolavirus [21] = assay: Antiviral activity against HIV1 pseudotyped EBOV infected in HEK293T cells assessed as inhibition of late stage viral entry at 25 uM treated for 1 hr before infection measured after 72 hrs by luciferase reporter gene assay relative to control; assay type: functional; conditions: Orthoebolavirus, HEK-293T
[22] = molecular target: Cathepsin B (Homo sapiens) (UniProt P07858); assay: Inhibition of cathepsin B in HEK293 cells using N-benzyloxycarbonyl-L-arginyl-L-arginine-7-amido-4-methylcoumarin as substrate; assay type: cell-based
Ebolavirus [23] = assay: Antiviral activity against HIV1 pseudotyped EBOV infected in HEK293T cells assessed as inhibition of late stage viral entry at 25 uM treated for 1 hr post infection measured after 72 hrs by luciferase reporter gene assay relative to control; assay type: functional; conditions: Orthoebolavirus, HEK-293T

Procathepsin L (Homo sapiens), sequence (P07711 114-333 limits assumed): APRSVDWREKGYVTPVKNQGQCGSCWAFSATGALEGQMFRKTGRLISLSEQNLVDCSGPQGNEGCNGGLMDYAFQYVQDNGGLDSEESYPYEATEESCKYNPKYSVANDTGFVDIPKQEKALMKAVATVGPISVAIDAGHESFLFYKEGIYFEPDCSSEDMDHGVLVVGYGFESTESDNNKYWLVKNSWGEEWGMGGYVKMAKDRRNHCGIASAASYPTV

Row | Compound | EC50 (Marburgvirus [2]) [µM] | EC50 [3] [µM] | selectivity ratio (in vitro [4]) | selectivity ratio (in vitro [5]) | CC50 (in vitro [6]) [µM] | EC50 (Ebolavirus [7]) [µM] | other results
1 | Cl.N | – | – | – | – | – | – | inhibition (HEK-293T [1]): Active
2 | C1=C2CCCN[C@H]2[C@@H]2C[C@H]1[C@H]1CCCCN1C2 | 10.2 | 103 | > 16.1 | > 19.6 | > 200 | 12.4 | –
3 | N#Cc1cccc(S(=O)(=O)N2CCCC3=C[C@H]4C[C@H](CN5CCCC[C@H]45)[C@@H]32)c1 | 70.7 | > 200 | > 2.9 | > 2.8 | > 200 | 69.4 | –
4 | Clc1cc(Cl)cc(CCCN2CCCC3=C[C@H]4C[C@H](CN5CCCC[C@H]45)[C@@H]32)c1 | – | 19.6 | 4.2 | – | 25.9 | 6.1 | –
5 | Clc1ccc(CN2CCCC3=C[C@H]4C[C@H](CN5CCCC[C@H]45)[C@@H]32)cc1Cl | 7.1 | > 200 | > 41.7 | > 28.2 | > 200 | 4.8 | MRT [8]: 4.89 h; half-life [9]: 4.14 h; Activity (Marburgvirus [10]): 45%; AUC(0-t) [11]: 2.74 µM·h; AUC(0-inf) [12]: 4.89 µM·h; inhibition at 25 µM (Ebolavirus [13]): 23 to 66%; LD50 at 168 h [14]: 28.3 mg/kg; inhibition [15]: inactive; LD50 at 168 h [16]: > 100 mg/kg; inhibition (HEK-293T [17]): inactive; Cmax [18]: 290 nM; Tmax [19]: 0.67 h; LD50 at 168 h [20]: 458 mg/kg; inhibition at 25 µM (Ebolavirus [21]): < 38%; inhibition [22]: Active; inhibition at 25 µM (Ebolavirus [23]): 85%
6 | O=S(=O)(c1ccc(Cl)cc1)N1CCCC2=C[C@H]3C[C@H](CN4CCCC[C@H]34)[C@@H]21 | 18.8 | 104 | > 9.2 | > 10.6 | > 200 | 21.8 | –
7 | COc1cccc(CN2CCCC3=C[C@H]4C[C@H](CN5CCCC[C@H]45)[C@@H]32)c1 | 17.8 | 59 | > 16.5 | > 11.2 | > 200 | 12.1 | –
8 | Clc1ccc(CCCN2CCCC3=C[C@H]4C[C@H](CN5CCCC[C@H]45)[C@@H]32)cc1 | – | 49.9 | 10.4 | – | 74.1 | 7.1 | –
9 | O=C(c1cc(Cl)cc(Cl)c1)N1CCCC2=C[C@H]3C[C@H](CN4CCCC[C@H]34)[C@@H]21 | 35.3 | > 200 | > 5 | > 5.7 | > 200 | 39.8 | –
10 | Clc1ccc(CCCN2CCCC3=C[C@H]4C[C@H](CN5CCCC[C@H]45)[C@@H]32)cc1Cl | – | 23 | 5 | – | 29.3 | 5.8 | –
11 | Clc1ccc(CN2CCCC3=C[C@H]4C[C@H](CN5CCCC[C@H]45)[C@@H]32)c(Cl)c1 | 6.4 | 10.6 | > 30.3 | > 31.2 | > 200 | 6.6 | –
12 | Cc1ccccc1CN1CCCC2=C[C@H]3C[C@H](CN4CCCC[C@H]34)[C@@H]21 | 15 | 39 | 9.7 | 10.8 | 162 | 16.6 | –
13 | O=S(=O)(c1ccc(Cl)c(Cl)c1)N1CCCC2=C[C@H]3C[C@H](CN4CCCC[C@H]34)[C@@H]21 | 10.5 | 45.4 | > 8.3 | > 19 | > 200 | 24.1 | –
14 | Clc1ccc(CN2CCCC3=C[C@H]4C[C@H](CN5CCCC[C@H]45)[C@@H]32)cc1 | 9.8 | 77.8 | > 16.8 | > 20.4 | > 200 | 11.9 | –
15 | Clc1ccc(CCN2CCCC3=C[C@H]4C[C@H](CN5CCCC[C@H]45)[C@@H]32)cc1Cl | – | 44 | 7.6 | – | 51.5 | 6.8 | –
16 | Clc1cc(Cl)cc(CCN2CCCC3=C[C@H]4C[C@H](CN5CCCC[C@H]45)[C@@H]32)c1 | – | 42.5 | 9.8 | – | 56 | 5.7 | –
17 | O=C(c1ccc(Cl)c(Cl)c1)N1CCCC2=C[C@H]3C[C@H](CN4CCCC[C@H]34)[C@@H]21 | 80.8 | 98.6 | 4.1 | 2.5 | 200 | 49 | –
18 | Clc1ccc(CCN2CCCC3=C[C@H]4C[C@H](CN5CCCC[C@H]45)[C@@H]32)cc1 | – | 52.2 | 13.9 | – | 83.3 | 6 | –
19 | Fc1ccc(CN2CCCC3=C[C@H]4C[C@H](CN5CCCC[C@H]45)[C@@H]32)cc1 | 21.5 | 107 | > 11.8 | > 9.3 | > 200 | 17 | –
20 | O=C(c1ccc(Cl)cc1)N1CCCC2=C[C@H]3C[C@H](CN4CCCC[C@H]34)[C@@H]21 | 112 | 89.6 | > 5.9 | > 1.8 | > 200 | 34.1 | –
21 | C1=C2CCCN(Cc3ccccc3)[C@H]2[C@@H]2C[C@H]1[C@H]1CCCCN1C2 | 22 | 28.3 | 11 | 7.6 | 168 | 15.2 | –
22 | O=S(=O)(c1cc(Cl)cc(Cl)c1)N1CCCC2=C[C@H]3C[C@H](CN4CCCC[C@H]34)[C@@H]21 | 27.2 | 31.3 | > 18.9 | > 7.4 | > 200 | 10.6 | –
23 | FC(F)(F)Oc1ccc(CN2CCCC3=C[C@H]4C[C@H](CN5CCCC[C@H]45)[C@@H]32)cc1 | 11.9 | 22.4 | 7.9 | 6.9 | 82 | 10.4 | –
24 | O=S(=O)(c1cccs1)N1CCCC2=C[C@H]3C[C@H](CN4CCCC[C@H]34)[C@@H]21 | 62.4 | > 200 | > 6 | > 3.2 | > 200 | 33.2 | –
25 | Clc1cc(Cl)cc(CN2CCCC3=C[C@H]4C[C@H](CN5CCCC[C@H]45)[C@@H]32)c1 | 8.5 | 34.3 | 10.3 | 9.8 | 83.5 | 8.1 | –
